Our source for the GI50 values is patent publication US12534457B2, “Heteroaryl derivative compounds, and uses thereof” (Voronoi Inc., priority 2021, dated 2026).

SMILES strings stand for the structures. Bounds are passed on as bounds.

The assay relates to Ba/F3 cells expressing EGFR Del19/C797S (EGFR DC). The experiment in a line: Proliferation inhibitory activity, Ba/F3 cells expressing EGFR Del19/C797S (CellTiter-Glo). Format: cell-based. Particulars: Mus musculus, BaF3, 72 hours of compound treatment. How it is done:
The following experiments were performed to evaluate the inhibitory activity of the compounds according to the present disclosure on Ba/F3 proliferation expressing EGFR C797S, L861Q, G719A, S768I, L718Q, and/or G724S mutations.
For Ba/F3 cells, RPMI-1640 containing 10% FBS and 5 ng/ml IL-3 (R&D Systems) was used. Transduced Ba/F3 cells were cultured after adding 1 μg/ml puromycin (Invitrogen) to the same medium.
At 24 hours before treatment with the compounds, 3000 to 5000 cells were aliquoted into each well of a white clear bottom 96 well plate (Corning). The compounds were diluted in dimethyl sulfoxide (3 times dilution, 12 concentrations in total), and injected in an amount of 1 μl so that the final concentration was 0.2 nM to 5 uM. For measurement of living cells, after 72 hours of compound treatment, the cells were stored at room temperature for 10 min using CellTiter-Glo luminescentcell-viability reagent (Promega), and then luminescence intensity was measured using a reader (SynergyNeo, Biotek). Each test was repeated three times. Result values were calculated as the cell growth rate (%) compared to the control. The graphs were created using GraphPad Prism version 8.3.0 program and the GI50 values were calculated.
(In general: In ATP-based viability assays light output follows the ATP content of the culture.)
On to `Cc1cc(Nc2cc(N3OCC[C@@H]3c3ccccc3)ncn2)ccc1N1CCC(N2CCN(C)CC2)CC1` [Example 53, (R)—N-(3-methyl-4-(4-(4-methylpiperazin-1-yl)piperidin-1-yl)phenyl)-6-(3-phenylisoxazolidin-2-yl)pyrimidin-4-amine], for which the GI50 is under 0.05 µM.

Consider `CN1CCN(C2CCN(c3ccc(Nc4cc(N5OCC[C@@H]5c5ccccc5)ncn4)cc3)CC2)CC1` [Example 54, (R)—N-(4-(4-(4-methylpiperazin-1-yl)piperidin-1-yl)phenyl)-6-(3-phenylisoxazolidin-2-yl)pyrimidin-4-amine], for which the GI50 was under 0.05 µM. The figure for `C[C@@H](Oc1cc(N2CCC(N3CCN(C)CC3)CC2)ccc1Nc1cc(N2OCC[C@@H]2c2ccccc2)ncn1)C(F)(F)F` [Example 56, N-(4-(4-(4-methylpiperazin-1-yl)piperidin-1-yl)-2-(((R)-1,1,1-trifluoropropan-2-yl)oxy)phenyl)-6-((R)-3-phenylisoxazolidin-2-yl)pyrimidin-4-amine] is under 0.05 µM. The same measure for `COc1cc(N2CCC(N3C[C@H]4C[C@@H]3CN4C)CC2)ccc1Nc1cc(N2OCC[C@@H]2c2ccccc2)ncn1` [Example 57, N-(2-methoxy-4-(4-((1R,4R)-5-methyl-2,5-diazabicyclo[2.2.1]heptan-2-yl)piperidin-1-yl)phenyl)-6-((R)-3-phenylisoxazolidin-2-yl)pyrimidin-4-amine]: under 0.05 µM; for `COc1cc(N2C[C@H]3C[C@@H]2CO3)ccc1Nc1cc(N2OCC[C@@H]2c2ccccc2)ncn1` [Example 59, N-(4-((1R,4R)-2-oxa-5-azabicyclo[2.2.1]heptan-5-yl)-2-methoxyphenyl)-6-((R)-3-phenylisoxazolidin-2-yl)pyrimidin-4-amine]: under 0.05 µM.

On to `COc1cc(N2CCC(N3CCN(C4CC4)C(C)(C)C3)CC2)ccc1Nc1cc(N2OCC[C@@H]2c2ccccc2)ncn1` [Example 61, (R)—N-(4-(4-(4-cyclopropyl-3,3-dimethylpiperazin-1-yl)piperidin-1-yl)-2-methoxyphenyl)-6-(3-phenylisoxazolidin-2-yl)pyrimidin-4-amine], for which the GI50 is under 0.05 µM.

For `COc1cc(N2CCC(N3CCCC3)CC2)ccc1Nc1cc(N2OCC[C@@H]2c2ccccc2)ncn1` [Example 62, (R)—N-(2-methoxy-4-(4-(pyrrolidin-1-yl)piperidin-1-yl)phenyl)-6-(3-phenylisoxazolidin-2-yl)pyrimidin-4-amine], the concentration for 50% growth inhibition (GI50) is under 0.05 µM.

For the compound `COc1cc(N2CCC(N3CCC(N4CCN(C5CC5)CC4)CC3)CC2)ccc1Nc1cc(N2OCC[C@@H]2c2ccccc2)ncn1` [Example 63, (R)—N-(4-(4-(4-cyclopropylpiperazin-1-yl)-[1,4′-bipiperidin]-1′-yl)-2-methoxyphenyl)-6-(3-phenylisoxazolidin-2-yl)pyrimidin-4-amine], the concentration for 50% growth inhibition (GI50) is under 0.05 µM. As to `COc1cc(OCCN(C)C)ccc1Nc1cc(N2OCC[C@@H]2c2ccccc2)ncn1` [Example 64, (R)—N-(4-(2-(dimethylamino)ethoxy)-2-methoxyphenyl)-6-(3-phenylisoxazolidin-2-yl)pyrimidin-4-amine], the GI50 was under 0.05 µM.

In the case of `COc1cc(SCCN(C)C)ccc1Nc1cc(N2OCC[C@@H]2c2ccccc2)ncn1` [Example 65, (R)—N-(4-((2-(dimethylamino)ethyl)thio)-2-methoxyphenyl)-6-(3-phenylisoxazolidin-2-yl)pyrimidin-4-amine], the GI50 was under 0.05 µM. The same measure for `COc1cc(N2CCSCC2)ccc1Nc1cc(N2OCC[C@@H]2c2ccccc2)ncn1` [Example 66, (R)—N-(2-methoxy-4-thiomorpholinophenyl)-6-(3-phenylisoxazolidin-2-yl)pyrimidin-4-amine]: under 0.05 µM; for `COc1cc(N2CCCN(C)CC2)ccc1Nc1cc(N2OCC[C@@H]2c2ccccc2)ncn1` [Example 67, (R)—N-(2-methoxy-4-(4-methyl-1,4-diazepan-1-yl)phenyl)-6-(3-phenylisoxazolidin-2-yl)pyrimidin-4-amine]: under 0.05 µM.

On to `C=CCN1CCN(c2ccc(Nc3cc(N4OCC[C@@H]4c4ccccc4)ncn3)cc2)CC1` [Example 68, (R)—N-(4-(4-allylpiperazin-1-yl)phenyl)-6-(3-phenylisoxazolidin-2-yl)pyrimidin-4-amine], for which the concentration for 50% growth inhibition (GI50) was under 0.05 µM. Consider `CN(C)[C@@H]1CCN(c2ccc(Nc3cc(N4OCC[C@@H]4c4ccccc4)ncn3)cc2)C1` [Example 69, N-(4-((R)-3-(dimethylamino)pyrrolidin-1-yl)phenyl)-6-((R)-3-phenylisoxazolidin-2-yl)pyrimidin-4-amine], for which the GI50 is under 0.05 µM. For `CN1CCN(C(=O)c2ccc(Nc3cc(N4OCC[C@@H]4c4ccccc4)ncn3)cc2)CC1` [Example 72, (R)-(4-methylpiperazin-1-yl) (4-((6-(3-phenylisoxazolidin-2-yl)pyrimidin-4-yl)amino)phenyl)methanone], the 50% growth inhibitory concentration (GI50) is 0.05 to 0.5 µM. For the compound `FC(F)(F)c1cccc(Nc2cc(N3OCC[C@@H]3c3ccccc3)ncn2)c1` [Example 73, (R)-6-(3-phenylisoxazolidin-2-yl)-N-(3-(trifluoromethyl)phenyl)pyrimidin-4-amine], the GI50 fell in the range of 0.05 to 0.5 µM.

For `Fc1ncc(N2C[C@@H]3C[C@H]2CO3)cc1Nc1cc(N2OCC[C@@H]2c2ccccc2)ncn1` [Example 74, N-(5-((1S,4S)-2-oxa-5-azabicyclo[2.2.1]heptan-5-yl)-2-fluoropyridin-3-yl)-6-((R)-3-phenylisoxazolidin-2-yl)pyrimidin-4-amine], the GI50 is under 0.05 µM.

With `O=C1CCCN1c1ccc(Nc2cc(N3OCC[C@@H]3c3ccccc3)ncn2)cc1` [Example 75, (R)-1-(4-((6-(3-phenylisoxazolidin-2-yl)pyrimidin-4-yl)amino)phenyl)pyrrolidin-2-one], the concentration for 50% growth inhibition (GI50) was under 0.05 µM. The figure for `CN1Cc2cc(Nc3cc(N4OCC[C@@H]4c4ccccc4)ncn3)ccc2C1=O` [Example 76, (R)-2-methyl-5-((6-(3-phenylisoxazolidin-2-yl)pyrimidin-4-yl)amino)isoindolin-1-one] is under 0.05 µM; for `c1ccc([C@H]2CCON2c2cc(Nc3ccc(N4CCNCC4)cc3)ncn2)cc1` [Example 77, (R)-6-(3-phenylisoxazolidin-2-yl)-N-(4-(piperazin-1-yl)phenyl)pyrimidin-4-amine] it is under 0.05 µM. As to `c1ccc([C@H]2CCON2c2cc(Nc3ccc4c(c3)CCNC4)ncn2)cc1` [Example 78, (R)—N-(6-(3-phenylisoxazolidin-2-yl)pyrimidin-4-yl)-1,2,3,4-tetrahydroisoquinolin-6-amine], the concentration for 50% growth inhibition (GI50) is under 0.05 µM. As for `Cn1nccc1-c1ccc(Nc2cc(N3OCC[C@@H]3c3ccccc3)ncn2)c2c1OCCO2` [Example 80, (R)—N-(8-(1-methyl-1H-pyrazol-5-yl)-2,3-dihydrobenzo[b][1,4]dioxin-5-yl)-6-(3-phenylisoxazolidin-2-yl)pyrimidin-4-amine], the 50% growth inhibitory concentration (GI50) lay within 0.05 to 0.5 µM.

Consider `COc1cc(P2(=O)CCN(C3CC3)CC2)ccc1Nc1cc(N2OCC[C@@H]2c2ccccc2)ncn1` [Example 81, (R)-1-cyclopropyl-4-(3-methoxy-4-((6-(3-phenylisoxazolidin-2-yl)pyrimidin-4-yl)amino)phenyl)-1,4-azaphosphinane 4-oxide], for which the GI50 was 0.05 to 0.5 µM. For the compound `c1ccc([C@H]2CCON2c2cc(Nc3ccc4c(c3)CC[C@H](N3CCCC3)CC4)ncn2)cc1` [Example 83, 6-((R)-3-phenylisoxazolidin-2-yl)-N—((R)-7-(pyrrolidin-1-yl)-6,7,8,9-tetrahydro-5H-benzo[7]annulen-2-yl)pyrimidin-4-amine], the GI50 was under 0.05 µM. The figure for `CCC(=O)Nc1cc(Nc2cc(N3OCC[C@@H]3c3cc(F)cc(F)c3)ncn2)c(OC)cc1N1CCC(N2CCC(N(C)C)CC2)CC1` [Example 85, (R)—N-(5-((6-(3-(3,5-difluorophenyl)isoxazolidin-2-yl)pyrimidin-4-yl)amino)-2-(4-(dimethylamino)-[1,4′-bipiperidin]-1′-yl)-4-methoxyphenyl)propionamide] is under 0.05 µM. The same measure for `COc1cc(N2CCC(N3CCN4CCCC4C3)CC2)c(NC(=O)CCCl)cc1Nc1cc(N2OCC[C@@H]2c2cc(F)cc(F)c2)ncn1` (stereo partly drawn) [Example 86, 3-chloro-N-(5-((6-((R)-3-(3,5-difluorophenyl)isoxazolidin-2-yl)pyrimidin-4-yl)amino)-2-(4-(hexahydropyrrolo[1,2-a]pyrazin-2 (1H)-yl)piperidin-1-yl)-4-methoxyphenyl)propanamide]: under 0.05 µM; for `CCC(=O)Nc1cc(Nc2cc(N3OCC[C@@H]3c3ccc(F)cc3F)ncn2)c(OC)cc1N1CCC(N2CCC(N3CCN(C)CC3)CC2)CC1` [Example 87, (R)—N-(5-((6-(3-(2,4-difluorophenyl)isoxazolidin-2-yl)pyrimidin-4-yl)amino)-4-methoxy-2-(4-(4-methylpiperazin-1-yl)-[1,4′-bipiperidin]-1′-yl)phenyl)propionamide]: under 0.05 µM; for `COc1cc(N2CCC3(CC2)CC(N(C)C)C3)c(C)cc1Nc1cc(N2OCC[C@@H]2c2ccccc2)ncn1` [Example 88, (R)-7-(5-methoxy-2-methyl-4-((6-(3-phenylisoxazolidin-2-yl)pyrimidin-4-yl)amino)phenyl)-N,N-dimethyl-7-azaspiro[3.5]nonan-2-amine]: under 0.05 µM.

As usually defined, the GI50 is the concentration that inhibits growth by half.
